# Reference: publication PMC4428838, “Optimization of Invasion-Specific Effects of Betulin Derivatives on Prostate Cancer Cells through Lead Development” (PLoS ONE, 2015)
# Key:
# [1] = in vitro; format: cell-based; conditions: human
# Method: To rule out that cytotoxic and antimitotic effects were misinterpreted as anti-invasive, we tested compounds 4, 5, 6, 19 and 20 for inhibition of proliferation and induction of cell death in a 2D monolayer culture (summarized in Fig 6). […] LNCaP cells were more sensitive, with growth inhibition/cytotoxicity starting at 3 μM. The effects on non-transformed, apoptosis-sensitive Ep156T cells were strongest. Here, cytotoxic effects were typically observed already at 0.3–1 μM. […] We further calculated EC50 values for proliferation, apoptosis and cell death for each compound, using the PerkinElmer Harmony software (method validation shown in S7 Fig). The only assay that produced results consistent with those of the betulin derivatives tested in the 2D cell culture model was the proliferation assay (Table 1).
# Fig 6 Cytotoxicity tests performed in 2D monolayer culture. A) Cell proliferation/cell number, B) programmed cell death (apoptosis), and C) number of dead cells were assessed by conventional assays, combined with high-content microscopy (Operetta). […] Proliferation was measured as the total number of nuclei (= cells), apoptosis as ratio of caspase-3 positive versus all cells, and cell death as ethidium homodimer-2 positive nuclei versus all cells.
# Cells were transferred into CellCarrier 384-well plates (PerkinElmer, Waltham, MA, USA) at a density of 1250 cells/well, using Multidrop dispenser (ThermoFisher Scientific, Waltham, MA, USA). After overnight incubation at 37°C experimental, compounds were added with an ATS Acoustic Transfer System (EDC Biosystems, Fremont, CA, USA). For Ep156T cells the protocol was done in reverse with compounds dispensed before seeding of cells. Fluorescent markers were dispensed in culture medium using ATS system after 72-h compound exposure. Nuclei were stained with cell-permeable Hoechst 33342 (Molecular Probes, Eugene, OR, USA), dead cells with ethidium homodimer-2 (Invitrogen, Carlsbad, CA, USA) and apoptotic cells with NucView caspase-3 detection reagent (Essen Bioscience, Ann Arbor, MI, USA). Cells were imaged with Operetta high-content imager (PerkinElmer, Waltham, MA, USA). Proliferation was measured from the number of nuclei (cells), cell death and apoptosis from positive cells/total cells ratio using Harmony image analysis software (PerkinElmer, Waltham, MA, USA). EC50 values were also assessed with the Harmony software.
# [2] = tested on: phosphorylation levels of 43 kinases in PC-3 cells; experiment: Phospho-kinase antibody array on lysates of 3D cultures; format: cell-based, human; conditions: for p70 S6 kinase (T389), p53 (S392) and PYK2 (Y402) phosphorylation: 6-d exposure; for phosphorylation levels of STAT3 (Y727), c-Jun (S63), eNOS (S1177) and PLC-γ1 (Y783): both short (4 h, 1 μM) and long-term (6 d, 300 nM) exposures
# Method: In order to elucidate possible mechanism of action for our betulin derivatives, we used a phospho-kinase array that quantitatively detects the phosphorylation levels of 43 kinases in cell lysates (Fig 7). Lysates were extracted from 3D cell cultures of PC-3 cells, and exposed to betulin-derived compounds for short (4 hours) or long-term (6 days) periods. For these studies, we selected the two representative derivatives 5 and 20 as the most specific, least cytotoxic inhibitors of cell invasion. […] The kinase arrays were also quantified by image densitometry (Fig 7A). […] The reduction of AKT activity by both compounds was validated by western blotting, using an independent, p-AKT specific antibody (Fig 7B). The short treatments caused only modest changes with a maximum reduction of protein phosphorylation by 2-fold (20: GSK-3α/β S21/S9 and STAT3 Y705). Phosphorylation levels of only three kinases were altered more than 2-fold in the long-term exposures, namely AKT (T308), p53 (S46) and eNOS (S1177), caused by nanomolar concentrations of compound 5. Compound 20 had much less dramatic effects on kinase phosphorylation when compared to compound 5, despite its generally more pronounced anti-invasive effects.
# Fig 7 Mechanisms of action. PC-3 spheroids were exposed to two representative betulin derivatives, 5 and 20, for 4 h (at 1 μM) and 6 days (at 0.3 μM). A) Computational quantification of signal intensities from the kinase arrays, aligned by fold changes observed (left to right). B) Western blot of total and phospho-Akt (S473) shown for both short and long-term exposure to 20 and 5.
# In order to generate sufficient protein material for antibody arrays, we resorted to 6-well Millicell hanging cell culture inserts (Merck Millipore, Billerica, MA, USA). Membranes were pre-coated with 4 mg/mL GFR Matrigel (Corning Inc., New York, NY, USA) and incubated at 37°C for 1 h to prevent attachment to the membrane. GFR Matrigel (2 mg/mL) was prepared and 100,000 cells were added in. The Matrigel-cell suspension was transferred into the coated wells and incubated overnight at 37°C. Fresh medium was added the following day under the insert. After four days in culture fresh media with compounds 20 and 5 at 0.3 μM concentration compounds were added for six days long-term exposure. On day 10, the same compounds were added in fresh medium at 1 μM concentration for the 4h short-term exposure. DMSO was used as a negative control in both exposures. Cells were harvested by first washing the inserts with ice cold PBS, then incubating the isolated ECM slabs in ice cold 5 mM ethylenediaminetetraacetic acid (EDTA) in PBS on ice on a table top rocker for 45 min to dissolve the ECM, and finally by washing the cell pellets once with PBS before lysing them in Lysis Buffer 6 (R&D Systems, Minneapolis, MN, USA). The antibody arrays used were from the Human Phospho-Kinase Array Kit (R&D Systems, Minneapolis, MN, USA). The samples were assayed according to manufacturer’s instructions. Exposed radiograms were scanned with a tabletop scanner and spot intensities quantified using Array-Pro Analyzer (v4.5.1.73) software.
SMILES,EC50 at 72 h [1] [µM],AMPKα1 (T174) phosphorylation [2],"phosphorylation of mTOR (S2448), Fyn (Y420) and Src (Y419) [2]","p70 S6 kinase (T389), p53 (S392) and PYK2 (Y402) phosphorylation ([2]; 300 nM)",Akt (S473) phosphorylation ([2]; 4 h at 1 μM vs 6 d at 300 nM),"phosphorylation levels of STAT3 (Y727), c-Jun (S63), eNOS (S1177) and PLC-γ1 (Y783) [2]","phosphorylation of Hck (Y411), pan-JNK, GSK-3α/β (S21/S9), STAT3 (Y705) and WNK1 (T60) sites ([2]; compound-specific effects)","maximum reduction of protein phosphorylation (GSK-3α/β S21/S9 and STAT3 Y705) ([2]; short treatments, 4 h, 1 μM) [fold]","p53 (S15) phosphorylation ([2]; short-term exposure, 4 h, 1 μM)",phosphorylation of p53 sites S46 and S392 [2],"alteration of phosphorylation levels of AKT (T308), p53 (S46) and eNOS (S1177) ([2]; long-term exposures, 6 d, nanomolar concentrations)","Akt (T308) phosphorylation ([2]; long-term treatment, 6 d, 300 nM)","specific changes in kinase activity ([2]; short-term exposure, 4 h, 1 μM)"
C=C(C)[C@@H]1CC[C@]2(C(=O)O)CC[C@]3(C)C(CCC4[C@@]5(C)Cc6ncccc6C(C)(C)C5CC[C@]43C)C12 (stereo partly drawn) [Compound 20],67,increased,increased,reduced,only inhibited by the 6-d exposure,clearly decreased,differential phosphorylation,2,reduced,–,–,–,–
C=C(C)[C@@H]1CC[C@]2(C(=O)O)CC[C@]3(C)C(CCC4[C@@]5(C)Cc6cnoc6C(C)(C)C5CC[C@]43C)C12 (stereo partly drawn) [Compound 5],10,increased,–,reduced,–,clearly decreased,–,–,reduced,consistently decreased,more than 2 fold,abolished almost entirely,did not cause any specific changes in kinase activity
